# Measurements as given in publication PMC11926788, “Effect of SSR504734, a Selective Glycine Transporter Type 1 Inhibitor, on Seizure Thresholds, Neurotransmitter Levels, and Inflammatory Markers in Mice” (ACS Chemical Neuroscience, 2025).
# pIC50: −log10 of the molar value. Where a name gives a salt, the structure may show the parent alone.
# Columns and labels:
# [1] = Neurotoxicity, SH-SY5Y cell viability; assay type: cell-based; conditions: human, neuroblastoma SH-SY5Y cells; 50 μM, 72 h
# Experimental: (§1) A series of in vitro ADME-Tox tests were performed for SSR504734 in order to estimate its drugability. The ADME-Tox parameters including permeability, plasma protein binding, metabolic stability, neurotoxicity, and hepatotoxicity were carried out as described previously.[31],[32] The ability of SSR504734 to penetrate through the biological membrane by passive diffusion was estimated by the Gentest Precoated PAMPA Plate System (Corning, Tewksbury, MA) and expressed as the permeability coefficient (Pe). The protein binding analysis was performed by using the commercial TRANSIL^XL PPB test, which mimics in vitro physiological plasma conditions where human serum albumin (HAS) and alpha-1-acid glycoprotein AGP are present in a 24:1 ratio. The human metabolism of SSR504734 was studied using human liver microsomes (HLMs) provided by Sigma-Aldrich. The hepatotoxicity and neurotoxicity were estimated in cellular models with the use of hepatoma HepG2 and neuroblastoma SH-SY5Y cell lines to perform the preliminary safety tests. The cells were incubated with SSR504734 at the concentration range of 0.1–100 μM. 1 μM cytostatic drug doxorubicin (DX) was used as the reference.
# (§2) Figure 8 Effect of cytostatic drug doxorubicin (DX) and SSR504734 on (A) hepatoma HepG2 and (B) neuroblastoma SH-SY5Y cell lines viability after 72 h of incubation at 37 °C, 5% CO2. Data are expressed as means ± SD. Statistical analysis: ****p < 0.0001 vs negative control −1% DMSO in growth media (one-way ANOVA, followed by Dunnett’s post hoc test).
# (§3) Figure S8. The effect of cytostatic drug doxorubicin and SSR504734 on (A) hepatoma
# (§4) HepG2 and (B) neuroblastoma SH-SY5Y cell line viability after 72 h of incubation at 37 °C,
# (§5) 5% CO2. The IC50 values were calculated by GraphPad Prism 8.0.
# (§6) (1 picture or pasted object on this page, not shown here)
# [2] = tested on: neuroblastoma SH-SY5Y cells; experiment: Neurotoxicity, SH-SY5Y cell viability; assay type: cell-based
# Experimental: as §1, §2, §3, §4, §5, §6
structure (smiles),measurement,setting,value
"O=C(NC(c1ccccc1)C1CCCCN1)c1cccc(C(F)(F)F)c1Cl [SSR504734, 2-chloro-N-[(S)-phenyl[(2S)-piperidin-2-yl]methyl]-3-trifluoromethyl benzamide monohydrochloride]","viability at 72 h, 50 µM",[1],~30%
same,completely safe dose in the SH-SY5Y model,[2]; 72 h,25 µM
same,pIC50,"[2]; Homo sapiens, SH-SY5Y, 72 h of incubation",4.42
